We go through twelve compounds from patent US20250171392A1, “CRYSTALLIZATION OF 4-HYDROXYACETOPHENONE FROM ETHANOL AND ETHYL ACETATE” (SYMRISE AG, priority 2022, published 2025).

For one series, the system named is Aspergillus brasiliensis. To be noted: when used in cosmetics; Daily Chemical Industry: 2015, 45:269; cited from earlier work.
In a further series the test system is Pseudomonas aeruginosa. To be noted: when used in cosmetics; Daily Chemical Industry: 2015, 45:269; cited from earlier work.
The nature of series [1]: Solubility testing (dissolution time) of purified 4-hydroxyacetophenone (0.5 wt.-%) in cold water. The class given is physicochemical. To be noted: for Time needed until purified 4-HAP is fully dissolved: 0.5 wt.-% 4-HAP, 99.50 wt.-% water, solvent at 17.5-18.5° C., stirred at 500 rpm at 20-21° C.
Series [2] can be described thus: Solubility testing (dissolution time) of purified 4-hydroxyacetophenone (0.5 wt.-%) in cold 1,2-pentanediol (5 wt.-%) in water. In kind it is physicochemical. To be noted: for Time needed until purified 4-HAP is fully dissolved: 0.5 wt.-% 4-HAP, 5 wt.-% 1,2-pentanediol, 94.50 wt.-% water, solvent at 17.5-18.5° C., stirred at 500 rpm at 20-21° C.
A short description of series [3]: Solubility testing (dissolution time) of purified 4-hydroxyacetophenone (0.5 wt.-%) in cold 1,2-pentanediol (3 wt.-%) and glycerin (5 wt.-%) in water. The class given is physicochemical. To be noted: for Time needed until purified 4-HAP is fully dissolved: 0.5 wt.-% 4-HAP, 3 wt.-% 1,2-pentanediol, 5 wt.-% glycerin (99.5%), 91.50 wt.-% water, solvent at 17.5-18.5° C., stirred at 500 rpm at 20-21° C.

Regarding `CC(=O)c1ccc(O)cc1` [4-hydroxyacetophenone], the “ability to kill Aspergillus brasiliensis” value in the series on Aspergillus brasiliensis is “great ability to kill”. The “ability to restrain Pseudomonas aeruginosa” value in the series on Pseudomonas aeruginosa is on record as “a certain ability to restrain”.
Take `CC(=O)c1ccc(O)cc1` [Example 1a, 4-hydroxyacetophenone]: in series [1], the “Time needed until purified 4-HAP is fully dissolved” value was found to be 24 min and the “dissolution time in cold water (in words, compared with the other samples)” value is “by far the shortest dissolution time”. In addition, the “Time needed until purified 4-HAP is fully dissolved” value in series [2] worked out at 12 min. For the same compound, in series [2] (cold 1,2-pentanediol (5 wt.-%) in water), the “dissolution time in cold 1,2-pentanediol (5 wt.-%) in water (in words, compared with the other samples)” value was “by far the shortest dissolution time”. In series [3], the “Time needed until purified 4-HAP is fully dissolved” value turned out to be 15 min; the “dissolution time in cold 1,2-pentanediol (3 wt.-%) and glycerin (5 wt.-%) in water (in words, compared with the other samples)” value is reported as “by far the shortest dissolution time”.
`CC(=O)c1ccc(O)cc1` [Example 1b, 4-hydroxyacetophenone]: in series [1], the “Time needed until purified 4-HAP is fully dissolved” value came to 22 min and the “dissolution time in cold water (in words, compared with the other samples)” value is recorded as “by far the shortest dissolution time”. For the same compound, in series [3], the “Time needed until purified 4-HAP is fully dissolved” value is 19 min; the “dissolution time in cold 1,2-pentanediol (3 wt.-%) and glycerin (5 wt.-%) in water (in words, compared with the other samples)” value is recorded as “by far the shortest dissolution time”.
Consider `CC(=O)c1ccc(O)cc1` [Example 2, 4-hydroxyacetophenone], for which the “Time needed until purified 4-HAP is fully dissolved” value amounted to 115 min in series [1], 56 min in series [2] and 53 min in series [3].
`CC(=O)c1ccc(O)cc1` [Example 3, 4-hydroxyacetophenone]: the “Time needed until purified 4-HAP is fully dissolved” value was determined as 35 min in series [1], 22 min in series [2] and 30 min in series [3].
Consider `CC(=O)c1ccc(O)cc1` [Example 4, 4-hydroxyacetophenone], for which the entries for the “Time needed until purified 4-HAP is fully dissolved” value in series [1], in series [2] and in series [3] were 41 min, 33 min and 24 min, respectively.
Turning to `CC(=O)c1ccc(O)cc1` [Example 5, 4-hydroxyacetophenone], the “Time needed until purified 4-HAP is fully dissolved” value is 35 min in series [1], 26 min in series [2] and 22 min in series [3].
In the case of `CC(=O)c1ccc(O)cc1` [Example 6, 4-hydroxyacetophenone], the “Time needed until purified 4-HAP is fully dissolved” value is 35 min in series [2] and 28 min in series [3].
With `CC(=O)c1ccc(O)cc1` [Example 7, 4-hydroxyacetophenone], the “Time needed until purified 4-HAP is fully dissolved” value in series [1] came out at 51 min; in series [2], 36 min; in series [3] it was 33 min.
For `CC(=O)c1ccc(O)cc1` [Example 8, 4-hydroxyacetophenone] the same measures were 44 min, 29 min and 27 min.
For `CC(=O)c1ccc(O)cc1` [Example 9, 4-hydroxyacetophenone] the same measures were 29 min, 17 min and 21 min.
`CC(=O)c1ccc(O)cc1` [Example 10, 4-hydroxyacetophenone]: the results for the “Time needed until purified 4-HAP is fully dissolved” value in series [1] and in series [3] were 67 min and 42 min, respectively.
